Here are results for twelve compounds from PubChem BioAssay (NCI).

Holding throughout (assay): NCI anticancer screen, dose series, 48 h
Assay [1] deals with ACHN renal.
Assay [2] has as its system K-562 leukemia.
Assay [3] relates to KM12 colon.
The test system of assay [4] is NCI-H23 lung.
In assay [5] the test system is OVCAR-8 ovarian.
Assay [6] relates to SK-MEL-5 melanoma.
Assay [7] deals with SK-OV-3 ovarian.
Assay [8] has as its system UO-31 renal.
Assay [9] concerns HCT-15 colon.
Assay [10] has as its system SR leukemia.

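How tested: cells in 96-well plates exposed to compound for 48 hours at five concentrations. GI50 is the concentration that inhibits growth by half. At the TGI there is no net growth.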

Turning to `COC(OC)c1cc2c(cc1C(=O)[C@@]13CCC[C@@H]1NC(=O)O3)OCO2`, the TGI in assay [1], in assay [2], in assay [3], in assay [4], in assay [5] and in [6] was over 100 µM in each case. The TGI in [7] and in assay [8] was over 100 µM each time.
As to `COc1ccc(CCN=C2CCC(C(=O)NCCc3ccc(OC)c(OC)c3)N2)cc1OC` (centres undefined), the TGI in assay [1], in [9], in assay [2], in assay [3], in assay [4] and in assay [5] was over 100 µM each time. Further, the TGI in assay [6], in assay [7] and in assay [8] was over 100 µM throughout.
In the case of `CC(=O)C1C(=O)N(C(C)C)C[C@@H]2CCC(=O)C[C@H]12` (some centres undefined), the TGI in [9], in [2], in assay [3], in assay [4], in [5] and in assay [6] was over 100 µM each time. The TGI in [7] and in assay [8] was over 100 µM each time.
`CN1CCc2c1nc(-c1ccc([N+](=O)[O-])cc1)c1c2N(C)CC1`: the TGI in [1], in assay [9], in assay [2], in assay [3], in assay [4] and in [5] was over 100 µM each time. In addition, the TGI in assay [6], in assay [7] and in assay [8] was over 100 µM each time.
Turning to `OCNCCNc1nc2ccccc2c2[nH]c3ccccc3c12`, the GI50 in [1] was 0.38 µM; in assay [9], 1.42 µM; in [2], 1.55 µM; in [3] it was 1.54 µM; in [4], 0.772 µM; in assay [5] it was 0.809 µM. Moreover, the GI50 in assay [6] is 1.28 µM; in assay [10], 0.902 µM; in assay [8], 2.98 µM. For the same compound, the TGI came out at 2.24 µM in [1]; 6.71 µM in assay [9]; 42.8 µM in [2]; 7.37 µM in [3]; 2.69 µM in [4]; 8.41 µM in assay [5]. Also, the TGI is 4.09 µM in assay [6], over 50 µM in assay [10] and over 50 µM in [8].
Consider `COc1ccc(C2CCc3cc4c(cc3/C2=N/OC(C)=O)OCO4)cc1OC` (centres undefined), for which the TGI in assay [9] is over 100 µM; in assay [2], over 100 µM; in [3] it was 54.8 µM; in assay [4] it was 72.6 µM; in assay [5] it was over 100 µM; in assay [6], 23 µM. Moreover, the TGI turned out to be 95.3 µM in assay [7] and 51.1 µM in assay [8].
In the case of `Cc1cc(Cl)cc2c1NC(=O)C2=O` (tested in a mixture with another compound), the TGI in assay [1], in assay [9], in [2], in assay [3], in [4] and in assay [5] was over 100 µM in each case. Moreover, the TGI in assay [6], in [7] and in assay [8] was over 100 µM in each case.
With `Nc1ccc2c(c1)c(N)nn2C(=O)Nc1ccc(Cc2ccccc2)cc1`, the GI50 in [1] was 3.37 µM; in assay [9] it was 2.75 µM; in [2], 2.24 µM; in assay [3] it was 3.34 µM; in assay [4], 16.9 µM; in assay [5] it was 20.2 µM. Further, the GI50 in [6] is 6.52 µM; in [7], 15.3 µM; in [8], 4.72 µM. In addition, the TGI in assay [1] is 13.7 µM; in [9], 14.2 µM; in [2], 11.4 µM; in assay [3] it was 15.1 µM; in assay [4], 39.5 µM; in assay [5] it was over 100 µM. Also, the TGI in assay [6] was 19.8 µM; in assay [7], 37.7 µM; in assay [8], 32.6 µM.
`COc1ccccc1NC(=O)C(CC(C(=O)Nc1ccccc1OC)/C(C)=N/Nc1ccc([N+](=O)[O-])cc1[N+](=O)[O-])/C(C)=N/Nc1ccc([N+](=O)[O-])cc1[N+](=O)[O-]` (centres undefined): the TGI in [1], in [9], in [2], in assay [3], in [4] and in assay [5] was over 100 µM in each case. Moreover, the TGI in [6], in [7] and in assay [8] was over 100 µM each time.
On to `CCOc1cc(-c2ccc[nH]2)[nH]c1/C=C1\N=C(C)C(C(=O)OC)=C1C`, for which the GI50 in assay [1] is 0.0344 µM; in assay [9], 0.0148 µM; in assay [3] it was 0.0251 µM; in assay [4] it was 0.0876 µM; in [5], 0.0329 µM; in assay [6], under 0.0133 µM. In addition, the GI50 in [7] was 0.183 µM; in assay [8], 0.0252 µM. Besides, the TGI in assay [1] is 1.16 µM; in assay [9], 0.0705 µM; in assay [3], 1.35 µM; in assay [4] it was 1.92 µM; in assay [5], 1.4 µM; in assay [6] it was 0.0293 µM. The TGI in [7] came out at 1.57 µM; in assay [8] it was 0.143 µM.
As to `N#CC1C=Cc2ccccc2N1C(=O)Oc1ccccc1` (centres undefined), the TGI in [1], in assay [9], in assay [2], in assay [3], in [4] and in [5] was over 100 µM each time. Further, the TGI in [6], in [10] and in [8] was over 100 µM each time.
In the case of `COC(=O)CC(C(C(C)=O)C(=O)OCc1ccccc1)N1C(=O)OCC1c1ccccc1` (centres undefined), the TGI in assay [1], in assay [9], in assay [2], in assay [4], in [5] and in assay [6] was over 100 µM throughout. Also, the TGI in assay [10] and in assay [8] was over 100 µM in each case.
